# Test results taken from ChEMBL document CHEMBL2069256, “Development of Toxoplasma gondii calcium-dependent protein kinase 1 (TgCDPK1) inhibitors with potent anti-toxoplasma activity” (J Med Chem, 2012).
# Key:
# Toxoplasma gondii [1] = assay: microbe, parasite or virus in culture; settings: 44 h
# [2] = Inhibition of Toxoplasma gondii CDPK1 Gly128Met mutant using syntide-2 peptide as substrate after 90 mins by kinase glo-luciferase assay
# [3] = target: Tyrosine-protein kinase ABL1 (Homo sapiens, UniProt P00519); assay: Inhibition of human ABL using EAIYAAPFAKKK-OH as substrate by phosphor imaging method
# [4] = target: Tyrosine-protein kinase Lck (Homo sapiens, UniProt P06239); assay: Inhibition of human LCK using Ac-EIYGEFKKK-OH as substrate after 60 mins
# [5] = target: Mitogen-activated protein kinase 14 (Homo sapiens, UniProt Q16539); assay: Inhibition of human p38alpha using myelin basic protein as substrate after 180 mins
# Ephrin type-A receptor 3 = target: T1, Ephrin type-A receptor 3 (Homo sapiens, UniProt P29320); assay: Inhibition of human EPHA3 using myelin basic protein as substrate after 120 mins
# T1 sequence (P29320 whole entry): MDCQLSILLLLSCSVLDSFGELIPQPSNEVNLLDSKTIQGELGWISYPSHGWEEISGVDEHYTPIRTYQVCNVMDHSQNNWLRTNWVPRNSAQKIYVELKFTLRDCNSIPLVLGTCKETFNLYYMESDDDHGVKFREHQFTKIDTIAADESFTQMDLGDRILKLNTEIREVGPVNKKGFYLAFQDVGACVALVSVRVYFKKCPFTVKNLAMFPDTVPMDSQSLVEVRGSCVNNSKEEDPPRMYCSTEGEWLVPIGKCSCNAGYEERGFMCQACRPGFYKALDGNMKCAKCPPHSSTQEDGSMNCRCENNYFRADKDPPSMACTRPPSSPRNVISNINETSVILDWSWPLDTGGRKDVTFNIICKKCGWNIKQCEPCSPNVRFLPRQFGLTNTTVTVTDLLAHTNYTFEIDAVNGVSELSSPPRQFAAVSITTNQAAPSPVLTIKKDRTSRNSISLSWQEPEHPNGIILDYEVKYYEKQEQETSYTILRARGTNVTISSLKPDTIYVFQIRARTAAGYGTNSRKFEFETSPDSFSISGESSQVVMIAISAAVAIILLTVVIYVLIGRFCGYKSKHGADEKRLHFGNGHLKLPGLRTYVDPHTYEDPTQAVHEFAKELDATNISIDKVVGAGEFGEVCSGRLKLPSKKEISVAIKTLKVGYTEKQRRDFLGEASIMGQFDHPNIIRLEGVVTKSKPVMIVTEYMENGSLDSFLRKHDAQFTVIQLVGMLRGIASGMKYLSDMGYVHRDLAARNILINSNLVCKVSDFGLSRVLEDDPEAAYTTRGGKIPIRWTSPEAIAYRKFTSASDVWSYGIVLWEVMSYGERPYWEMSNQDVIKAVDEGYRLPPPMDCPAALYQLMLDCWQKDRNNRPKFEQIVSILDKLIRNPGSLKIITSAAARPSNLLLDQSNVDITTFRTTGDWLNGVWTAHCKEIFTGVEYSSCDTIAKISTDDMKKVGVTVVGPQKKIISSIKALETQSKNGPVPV
# [6] = target: Tyrosine-protein kinase CSK (Homo sapiens, UniProt P41240); assay: Inhibition of human CSK using Ac-KKKKEEIYFFF-OH as substrate after 180 mins
# [7] = target: Epidermal growth factor receptor (Homo sapiens, UniProt P00533); assay: Inhibition of human EGFR using poly glu-Tyr as substrate after 30 mins
# HL-60 = assay: Cytotoxicity against human HL60 cells assessed as inhibition of cell growth after 48 to 72 hrs by alamar blue assay; type: cell-based
# [8] = Cytotoxicity against human CRL8155 cells assessed as inhibition of cell growth after 48 to 72 hrs by alamar blue assay; type: cell-based
# [9] = Inhibition of Toxoplasma gondii CDPK1 using syntide-2 peptide as substrate after 90 mins by kinase glo-luciferase assay
# [10] = target: Proto-oncogene tyrosine-protein kinase Src (Homo sapiens, UniProt P12931)
# Toxoplasma gondii [11] = assay: Antiparasitic activity against Toxoplasma gondii expressing CDPK1 Gly128Met mutant; type: functional, organism-based
SMILES,EC50 (Toxoplasma gondii [1]) [nM],other results
CCCOc1ccc2cc(-c3nn(C(C)C)c4ncnc(N)c34)ccc2c1,> 6250,
CCCOc1ccc2cc(-c3nn(CC4CCNCC4)c4ncnc(N)c34)ccc2c1,160,
CC(C)COc1ccc2cc(-c3nn(C(C)C)c4ncnc(N)c34)ccc2c1,310,
CC(C)COc1ccc2cc(-c3nn(CC4CCNCC4)c4ncnc(N)c34)ccc2c1,210,
CCCCOc1ccc2cc(-c3nn(C(C)C)c4ncnc(N)c34)ccc2c1,90,
CCCCOc1ccc2cc(-c3nn(CC4CCNCC4)c4ncnc(N)c34)ccc2c1,60,
CC(C)n1nc(-c2ccc3cc(OCc4ccccc4)ccc3c2)c2c(N)ncnc21,3.3,
Nc1ncnc2c1c(-c1ccc3cc(OCc4ccccc4)ccc3c1)nn2CC1CCNCC1,130,
CC(C)n1nc(-c2ccc3cc(OCc4ccccc4Cl)ccc3c2)c2c(N)ncnc21,140,
Nc1ncnc2c1c(-c1ccc3cc(OCc4ccccc4Cl)ccc3c1)nn2CC1CCNCC1,1100,
CC(C)n1nc(-c2ccc3cc(OCc4cccc(Cl)c4)ccc3c2)c2c(N)ncnc21,12,
Nc1ncnc2c1c(-c1ccc3cc(OCc4cccc(Cl)c4)ccc3c1)nn2CC1CCNCC1,100,
CC(C)n1nc(-c2ccc3cc(OCc4ccc(Cl)cc4)ccc3c2)c2c(N)ncnc21,13,
Nc1ncnc2c1c(-c1ccc3cc(OCc4ccc(Cl)cc4)ccc3c1)nn2CC1CCNCC1,460,IC50 [2]: 1100 nM
CCOc1ccc2cc(-c3nn(C[C@@H](N)C(C)C)c4ncnc(N)c34)ccc2c1,1000,
CCOc1ccc2cc(-c3nn(C[C@H](C(C)C)N(C)C)c4ncnc(N)c34)ccc2c1,960,
CCOc1ccc2cc(-c3nn(C[C@H]4CCCN4)c4ncnc(N)c34)ccc2c1,970,

SMILES,EC50 (Toxoplasma gondii [1]) [nM],other results
CCOc1ccc2cc(-c3nn(C[C@H]4CCCN4C)c4ncnc(N)c34)ccc2c1,860,
CCOc1ccc2cc(-c3nn(C4CCNCC4)c4ncnc(N)c34)ccc2c1,45,
CCOc1ccc2cc(-c3nn(C4CCN(C)CC4)c4ncnc(N)c34)ccc2c1,50,IC50 [3]: > 10000 nM; IC50 [4]: 120 nM; IC50 [5]: > 10000 nM; IC50 (Ephrin type-A receptor 3): > 10000 nM; IC50 [6]: 10000 nM; IC50 [7]: > 10000 nM; GI50 (HL-60): > 10000 nM; GI50 [8]: > 10000 nM
CCOc1ccc2cc(-c3nn(C4CCN(CC)CC4)c4ncnc(N)c34)ccc2c1,90,
CCCN1CCC(n2nc(-c3ccc4cc(OCC)ccc4c3)c3c(N)ncnc32)CC1,160,
CCOc1ccc2cc(-c3nn(C4CCN(CCCN)CC4)c4ncnc(N)c34)ccc2c1,340,
CCOc1ccc2cc(-c3nn(C4CCN(C(C)=O)CC4)c4ncnc(N)c34)ccc2c1,29,
CCOc1ccc2cc(-c3nn(C4CCN(S(C)(=O)=O)CC4)c4ncnc(N)c34)ccc2c1,35,
CCOc1ccc2cc(-c3nn(CC4CCN(C)CC4)c4ncnc(N)c34)ccc2c1,140,IC50 [9]: 2.9 nM; IC50 [10]: > 10000 nM; IC50 [3]: 4600 nM; IC50 [4]: 3300 nM; IC50 [5]: > 10000 nM; IC50 (Ephrin type-A receptor 3): > 10000 nM; IC50 [6]: > 10000 nM; IC50 [7]: > 10000 nM; GI50 (HL-60): > 10000 nM; GI50 [8]: > 10000 nM; EC50 (Toxoplasma gondii [11]): 1000 nM
CCOc1ccc2cc(-c3nn(CC4CCN(CC)CC4)c4ncnc(N)c34)ccc2c1,330,
CCOc1ccc2cc(-c3nn(CC4CCN(C(C)=O)CC4)c4ncnc(N)c34)ccc2c1,,IC50 [9]: 11 nM; IC50 [10]: > 10000 nM
CCOc1ccc2cc(-c3nn(CCC4CCNCC4)c4ncnc(N)c34)ccc2c1,140,
CCOc1ccc2cc(-c3nn(CCC4CCN(C)CC4)c4ncnc(N)c34)ccc2c1,49,
CCOc1ccc2cc(-c3nn(CCC4CCN(CC)CC4)c4ncnc(N)c34)ccc2c1,100,
CCCN1CCC(CCn2nc(-c3ccc4cc(OCC)ccc4c3)c3c(N)ncnc32)CC1,180,
CCOc1ccc2cc(-c3nn(CCC4CCN(CCCN)CC4)c4ncnc(N)c34)ccc2c1,1200,
